The source of these data is publication PMC8153121, “N-Alkylation of Anthracycline Antibiotics by Natural Sesquiterpene Lactones as a Way to Obtain Antitumor Agents with Reduced Side Effects” (Biomedicines, 2021).

Like-named read-outs stand apart in the source and are kept apart here.

A word on the IC50: it is the concentration at which inhibition is half-maximal.

Holding throughout (format): cell-based, Human
The test system of one experiment is A549 (lung carcinoma). The experiment can be described thus: MTT cell viability test, A549. The conditions noted are these: read-out: IC50, A549. How it is done: (§1) Human cell cultures of tumor origin (A549 (lung carcinoma), HCT116 (colon adenocarcinoma), MCF7 (breast cancer), RD (embryonic rhabdomyosarcoma)), and the line of non-transformed cells HEK293 (embryonic kidney) provided by the Laboratory of Tumor Cell Genetics at the N.N. Blokhin Russian Cancer Research Institute, as well as by the Institute of Cytology of the Russian Academy of Sciences, were grown in DMEM (Gibco, Scotland, UK) and MEM (Gibco, Scotland, UK) containing fetal calf serum (10% by volume) (ThermoFisher Scientific, Paisley, UK), L-glutamine (2 mM) (Gibco, Scotland, UK), and penicillin-streptomycin (1% by volume) (PanEco, Moscow, Russia).
(§2) Cellular viability was determined by the MTT test. […] After 24 h of incubation, various concentrations of the test compounds dissolved in DMSO (≤1%) were added to the cell cultures, the solvent was added to the control wells in an equal volume, and then the cells were cultured under the same conditions for 72 h. After the incubation time, MTT (3-(4,5-dimethylthiazol-2-yl)-2,5-diphenyltetrazolium bromide, 5 mg/mL) was added to each well, and the plates were further incubated for 2 h (until a characteristic color appeared). Then, the formazan granules were dissolved in DMSO.
(§3) Using a plate analyzer (Cytation3, BioTech Instruments Inc., USA), the optical density was determined at λ = 530 nm.
A general note: Formazan colour is commonly taken as a measure of viable cells.

Experiment [1] concerns HCT116 (colon adenocarcinoma). The experiment can be described thus: MTT cell viability test, HCT116. The conditions noted are these: read-out: IC50, HCT116. How it is done:
as §1, §2, §3

The next experiment has as its system MCF7 (breast cancer). Put plainly: MTT cell viability test, MCF7. The conditions noted are these: read-out: IC50, MCF7. As for the experimental part:
as §1, §2, §3

In experiment [2] the test system is RD (embryonic rhabdomyosarcoma). Put plainly: MTT cell viability test, RD. The conditions noted are these: 72 h, read-out: IC50, RD. As for the experimental part:
as §1, §2, §3

Experiment [3] relates to HEK293 (embryonic kidney). Put plainly: MTT cell viability test, non-transformed HEK293. The following applies: read-out: IC50, HEK293. As for the experimental part: as §1, §2, §3
[4] abbreviates: Homo sapiens, A549, 72 h, MTT, 72 h.
[5] abbreviates: Homo sapiens, HCT-116, 72 h, MTT, 72 h.
Where [6] appears, read: Homo sapiens, MCF7, 72 h, MTT, 72 h.
The mark [7] stands for this setting: Homo sapiens, HEK293, 72 h, MTT, 72 h, non-transformed cells.

Consider `C=C1C(=O)O[C@@H]2C[C@@]3(C)CCCC(C)=C3C[C@H]12` [Compound 3, alloalantholactone, reference compound], for which the IC50 was 23.1 ± 1.18 µM with A549 (lung carcinoma) (setting [4]); 34.5 ± 3.51 µM in experiment [1] (setting [5]); 17.9 ± 0.68 µM in the experiment with MCF7 (breast cancer) (setting [6]); 8.82 ± 0.14 µM in experiment [2] (Homo sapiens, MTT); 35.9 ± 0.48 µM in experiment [3] (setting [7]).

As to `C=C1C(=O)O[C@@H]2C[C@@]3(C)CCC[C@H](C)C3=C[C@H]12` [Compound 2, alantolactone, reference compound], the IC50 with A549 (lung carcinoma) (setting [4]) was found to be 36.7 ± 1.43 µM; in experiment [1] (setting [5]), 10.57 ± 0.04 µM; with MCF7 (breast cancer) (setting [6]), 13.2 ± 0.93 µM; in experiment [2] (Homo sapiens, MTT) it was 5.48 ± 0.2 µM; in experiment [3] (setting [7]) it was 36.47 ± 0.07 µM.

In the case of `C=C1C(=O)O[C@@H]2C[C@@]3(C)CCC=C(C)C3=C[C@H]12` [Compound 8, alanthodiene, reference compound], the IC50 in the experiment with A549 (lung carcinoma) (Homo sapiens, A549, 72 h) was determined as 59.9 ± 2.26 µM; in experiment [1] (Homo sapiens, HCT-116, 72 h) it was 4.99 ± 0.06 µM; in the experiment on MCF7 (breast cancer) (Homo sapiens, MCF7, 72 h), 4.31 ± 0.02 µM; in experiment [2] (Homo sapiens), 4.94 ± 0.09 µM; in experiment [3] (Homo sapiens, HEK293, 72 h), 9.07 ± 0.25 µM.

For `C=C1C(=O)OC2CC3(C)CCCC4(CO4)C3CC12` (stereo not shown) [Compound 4, epoxy-isoalantholactone, reference compound], the IC50 was determined as 83.51 ± 0.26 µM with A549 (lung carcinoma) (setting [4]); 21.4 ± 0.32 µM in experiment [1] (setting [5]); 31.87 ± 0.14 µM in the experiment on MCF7 (breast cancer) (setting [6]); 18.6 ± 0.21 µM in experiment [2] (Homo sapiens, MTT); 106 ± 4.13 µM in experiment [3] (setting [7]).

With `C=C1CCC[C@]2(C)C[C@H]3OC(=O)C(=C)[C@H]3CC12` (stereo partly shown) [Compound 1, isoalantholactone, reference compound], the IC50 was 32 ± 3.24 µM in the experiment with A549 (lung carcinoma) (setting [4]); 11.3 ± 0.27 µM in experiment [1] (setting [5]); 17.5 ± 0.6 µM in the experiment with MCF7 (breast cancer) (setting [6]); 10.4 ± 0.79 µM in experiment [2] (Homo sapiens, MTT); 74.03 ± 0.51 µM in experiment [3] (setting [7]).

`C=C1C(=O)OC2CC3(C)CCCC4(C)OC34CC12` (stereo not shown) [Compound 6, epoxyalloalantholactone, reference compound]: the IC50 in the experiment on A549 (lung carcinoma) (setting [4]) turned out to be 61.7 ± 2.4 µM; in the experiment with A549 (lung carcinoma) (MTT, 72 h) it was 50.3 ± 1.11 µM; in experiment [1] (setting [5]), 10.8 ± 0.18 µM; in experiment [1] (MTT, 72 h), 9.75 ± 0.57 µM; in the experiment with MCF7 (breast cancer) (setting [6]) it was 38.6 ± 0.86 µM; in the experiment with MCF7 (breast cancer) (MTT, 72 h) it was 24 ± 0.8 µM. In addition, the IC50 in experiment [2] (Homo sapiens, MTT) was determined as 16.8 ± 0.28 µM; in experiment [2] (MTT), 8.77 ± 0.01 µM; in experiment [3] (setting [7]), 29.77 ± 0.05 µM; in experiment [3] (MTT, 72 h, non-transformed cells), 18.5 ± 0.2 µM.

On to `C=C1C(=O)O[C@@H]2C[C@@]3(C)CCC[C@H](C)[C@@]34O[C@H]4[C@H]12` [Compound 5, epoxyalantholactolactone, reference compound], for which the IC50 in the experiment on A549 (lung carcinoma) (setting [4]) is 21.5 ± 0.75 µM; in experiment [1] (setting [5]) it was 5.12 ± 0.05 µM; in the experiment on MCF7 (breast cancer) (setting [6]), 11.4 ± 0.32 µM; in experiment [2] (Homo sapiens, MTT) it was 4.81 ± 0.12 µM; in experiment [3] (setting [7]), 38.1 ± 1.08 µM.
